Laboratory results from patent publication US12458818B2, “Anti-trophoblast cell surface antigen 2 (TROP2) antibodies and antibody drug conjugates comprising same” (CSPC MEGALITH BIOPHARMACEUTICAL CO., LTD., priority 2019, dated 2025).

What was measured:
human TROP2 = molecular target: T1, human TROP2 (Homo sapiens, UniProt P09758); assay: Surface plasmon resonance kinetics and affinities (Table 8B); assay type: binding; conditions: SPR, analyte TROP2
T1 sequence (P09758 27-323): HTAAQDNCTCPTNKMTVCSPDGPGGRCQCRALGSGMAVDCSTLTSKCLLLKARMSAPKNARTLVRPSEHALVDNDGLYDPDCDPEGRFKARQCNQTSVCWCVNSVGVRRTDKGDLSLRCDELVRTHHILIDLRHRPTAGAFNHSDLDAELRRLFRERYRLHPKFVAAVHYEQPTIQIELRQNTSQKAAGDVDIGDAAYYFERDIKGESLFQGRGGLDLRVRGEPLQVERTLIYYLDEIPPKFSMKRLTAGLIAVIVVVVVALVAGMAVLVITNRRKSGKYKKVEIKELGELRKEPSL
Procedure: Surface plasmon resonance (SPR) experiments were performed to determine the kinetics and affinities of certain antibodies shown in Table 8A.

HCC38 = assay: In vitro cytotoxicity assay, HCC38; assay type: cell-based; conditions: HCC38 TROP2+ human mammary ductal carcinoma cell line
Procedure: (§1) Additional in vitro cytotoxicity assays were performed to test the ability of DP002-HC1LC1-ADC to inhibit the growth of MDA-MB-468 (a TROP2^+ human breast adenocarcinoma cell line) and HCC38 (a TROP2^+ human mammary ductal carcinoma cell line).

BxPC-3 = assay: In vitro cytotoxicity assay, BxPC-3; assay type: cell-based; conditions: BxPC-3 human pancreatic adenocarcinoma cell line
Procedure: (§2) DP002-HC1LC1-ADC is an antibody-drug conjugate comprising anti-TROP antibody DP002-HC1LC1, which comprises HCl (SEQ ID NO: 52) and LC 1 (SEQ ID NO: 58), conjugated to monomethyl auristatin E (MMAE) at a drug-antibody ratio (DAR) of 2. A DP002-HC1LC1-ADC was prepared using a conjugation method described in WO 2015/191883. A series of in vitro cytotoxicity assays were performed to assess the ability of DP002-HC1LC1-ADC to inhibit the growth of the following TROP2 expressing cancer cell lines: HCC1954 (a human breast carcinoma cell line), BxPC-3 (a human pancreatic adenocarcinoma cell line), and NCI-N87 (a human gastric carcinoma cell line). Experiments using staurospirone, a positive apoptosis control, and anti-TROP2 antibody DP002-HC4LC5, which comprises HC4 (SEQ ID NO: 55) and LC5 (SEQ ID NO: 62), were performed in parallel.

HCC1954 = assay: In vitro cytotoxicity assay, HCC1954; assay type: cell-based; conditions: HCC1954 human breast carcinoma cell line
Procedure: as §2

NCI-N87 = assay: In vitro cytotoxicity assay, NCI-N87; assay type: cell-based; conditions: NCI-N87 human gastric carcinoma cell line
Procedure: as §2

MDA-MB-468 = assay: In vitro cytotoxicity assay, MDA-MB-468; assay type: cell-based; conditions: MDA-MB-468 TROP2+ human breast adenocarcinoma cell line
Procedure: as §1

SKBR3 cells = assay: FACS internalization of anti-TROP2 antibodies by SKBR3 cells; assay type: cell-based, human; conditions: 20 nM antibody mixed with 60 nM pHAb-labelled secondary antibody, overnight incubation
Procedure: FACS experiments were performed to verify that antibodies 1B3, 15D9, 15A10, 17B6, and 17D1 were internalized by SKBR3 cells. SKBR3 is a TROP2-expressing human breast carcinoma cell line. Briefly, 1.2×10^5 SKBR3 cells were seeded into each 12-well plates and cultured overnight. 300 μL of 20 nM control antibody, 1B3, 15D9, 15A10, 17B6, or 17D1 (in DMEM-10) were mixed with 300 μL 60 nM pHAb-labelled secondary antibody for 15 minutes at room temperature in the dark. The labeled antibodies mixtures were added to the SKBR3 cells and incubated overnight. Following overnight incubation, the SKBR3 cells were trypsinized, washed twice with 1% BSA/PBS, and analyzed via flow cytometry.

## Control: biosimilar of the anti-TROP2 antibody sacituzumab [reference compound]
Human TROP2
  Kd: 0.4 nM
  Rmax: 50.7
  ka: 511000 M⁻¹ s⁻¹
  kd: 0.000204 s⁻¹

## CN[C@@H]1C[C@H]2O[C@@](C)([C@@H]1OC)n1c3ccccc3c3c4c(c5c6ccccc6n2c5c31)C(=O)NC4 [Staurosprione, staurospirone]
HCC38
  IC50: 4.26 nM
  Max % inhibition: 99.44%
BxPC-3
  IC50: 5.37 nM
  Max % inhibition: 98.02%
BxPC-3; listed as staurospirone
  Max % inhibition: greater than 93%
HCC1954
  IC50: 21.7 nM
  Max % inhibition: 95.12%
HCC1954; listed as staurospirone
  Max % inhibition: greater than 93%
NCI-N87
  IC50: 9.31 nM
  Max % inhibition: 93.44%
NCI-N87; listed as staurospirone
  Max % inhibition: greater than 93%
MDA-MB-468
  IC50: 14.7 nM
  Max % inhibition: 92.38%

B1: 1B3: mouse anti-human TROP2 antibody, VH SEQ ID NO: 22, VL SEQ ID NO: 27 (antibody, V domains shown)
VH: QVQLQQSGAELVRPGVSVKISCKGSGYTFTDYSINWVKQSHAKSLEWIGVISTYYGDASYNQKFKGKATMTVDKSSSTAYMELARLTSEDSAIYYCARYGDGYNQFDYWGQGTTLTVSS
VL: DIVLTQSPASLAVSLGQRATISCRVSESVDSYGNNFMHWYQQKPGQPPKLLIYRASNLESGVPARFSGSGSGTDFTLTINPMEADDVATYYCQQSYEDPYTFGGGTKLEIK
SKBR3 cells
  internalization by SKBR3 cells (flow cytometry): internalized

B2: 15D9: mouse anti-human TROP2 antibody, VH SEQ ID NO: 24, VL SEQ ID NO: 29 (antibody, V domains shown)
VH: QVQLQQSGAELVRPGVSVKISCKGSGYTFTDYSIHWVKQSHAKSLEWIGVISSYYGDATYNQKFKGKATMTVDKSSSTAYMELARLTSEDSAIYYCALLGAYNYFDYWGQGTTLTVSS
VL: DIVLTQSPASLAVSLGQRATISCRASESVDSYGNSFMHWYQQKPGQPPKLLVYRASNLESGIPARFSGSGSRTDFTLTINPVEADDVATYYCQQSYEDPPTFGGGTKLEIK
SKBR3 cells
  internalization by SKBR3 cells (flow cytometry): internalized

B3: 15A10: mouse anti-human TROP2 antibody, VH SEQ ID NO: 23, VL SEQ ID NO: 28 (antibody, V domains shown)
VH: EVQLEQSGPGLVQPSQSLSITCTVSGFSLTRYGVHWVRQSPGRSLEWLGVIWSGGNTDYNAAFISRLTITKDNSKSQVFFKMNSLQPNDTGVYYCAREDRYVGEFAYWGQGTLVTVSA
VL: DIVLTQSTASLAVSLGQRATISCRASESVDSYGNSFIHWYQQKPGQPPKLLIYRASNLESGIPARFSGSGSRTDFTLTINPVEADDVATYYCQQSNEDPRTFGGGTKLEIK
SKBR3 cells
  internalization by SKBR3 cells (flow cytometry): internalized

B4: 17B6: mouse anti-human TROP2 antibody, VH SEQ ID NO: 26, VL SEQ ID NO: 31 (antibody, V domains shown)
VH: QVQLQQSGAELVRPGVSVKISCKGSGYTFTDYGMNWVKQSHAKSLEWIGVISTFYGDANYNQKFKGKATMTVDKSSSTAYMELARLTSEDSAIYYCARRGNYDSMDYWGQGTSVTVSS
VL: DIVLTQSPVFLAVSLGQRATISCRASESVDSYGNSFMHWYQQKPGQPPKLLIYRASNLESGIPARFSGSGSRTDFTLTINPVEADDVETYYCQQSYEDPPTFGGGTKLEIE
SKBR3 cells
  internalization by SKBR3 cells (flow cytometry): internalized

B5: 17D1: mouse anti-human TROP2 antibody, VH SEQ ID NO: 25, VL SEQ ID NO: 30 (antibody, V domains shown)
VH: QVQLQQSGAELVRPGVSVKISCKGSGYTFTDYSIHWVKQSHAKSLEWIGLISTYYGDATYTQKFKGKATMTVDKSSSTAYMELARLTSEDSAIYYCALLGAYNYFDYWGQGTTLTVSS
VL: DIVLTQSPASLAVSLGQRATISCRASESVDSYGNSFMHWYQQKPGQPPKLLVYRASNLESGIPARFSGSGSRTDFTLTINPVEADDIATYYCQQSYEDPPTFGGGTKLEIK
SKBR3 cells
  internalization by SKBR3 cells (flow cytometry): internalized
